# Test results reported in patent US4112228A, “7-(D-α-Hydroxy-2-arylacetamido)-3-(2-carboxyalkyl-2,3-dihydro-s-tri azolo-[4,3-b]pyridazin-3-on-6-ylthiomethyl)-3-cephem-4-carboxylic acids and derivatives” (priority 1977, dated 1978).
# Where two headings read alike, the source gives them in different places.
# Tests used:
# S. typhimurium = experiment: MIC by Steers' agar dilution method; conditions: Salmonella enterica
# bacteria of Table 4 = experiment: Media effect on MIC (Nutrient, Mueller-Hinton, Heart-Infusion agar); type: cell-based; conditions: NA, MHA, HIA
# [1] = tested on: E. cloacae A20464 (El-19); experiment: Standard experimental infection in mice; type: in vivo; conditions: Run C-811
# Ps. aeruginosa = experiment: MIC by Steers' agar dilution method; conditions: Pseudomonas aeruginosa
# Urinary recovery in rats = type: in vivo; conditions: rat, urine, sc 10 mg./kg., 0-24 Hrs.
# D. pneumoniae = experiment: MIC by Steers' agar dilution method
# E. coli = experiment: MIC by Steers' agar dilution method; type: cell-based; conditions: Escherichia coli
smiles,measurement,setting,value
"Cn1nnnc1SCC1=C(C(=O)O)N2C(=O)[C@@H](NC(=O)[C@H](O)c3ccccc3)[C@H]2SC1 [Cefamandole, cefamandole, reference compound]",MIC,S. typhimurium,0.2 µg/mL
same,Media effect on MIC,bacteria of Table 4,little media effect
same,ED50,"[1]; Enterobacter cloacae, read-out: PD50",0.8 mg/kg
same,No. of survivors/No. tested,[1]; 0.4 mg./kg.,1/5
same,No. of survivors/No. tested,[1]; 1.6 mg./kg.,4/5
same,No. of survivors/No. tested,[1]; 6.3 mg./kg.,5/5
same,No. of survivors/No. tested,[1]; 100 mg./kg.,5/5
same,MIC,"Ps. aeruginosa; A9843, MHA, Table 1",> 100 µg/mL
same,MIC,"Ps. aeruginosa; A9930, MHA, Table 1",> 100 µg/mL
same,MIC,"Ps. aeruginosa; Pa-3 A9930, HIA, Table 4",> 100 µg/mL
same,MIC,"Ps. aeruginosa; Pa-3 A9930, MHA, Table 4",> 100 µg/mL
same,MIC,"Ps. aeruginosa; Pa-3 A9930, NA, Table 4",> 100 µg/mL
same,MIC,"Ps. aeruginosa; strain not given (1st of 2), MHA, Example 10",> 100 µg/mL
same,MIC,"Ps. aeruginosa; strain not named (2nd of 2), MHA, Example 10",> 100 µg/mL
same,dose excreted at 24 h,Urinary recovery in rats,58.3%
same,MIC,"D. pneumoniae; Dp-2 Type I Neufeld, MHA, Table 2",0.2 µg/mL
same,MIC,"D. pneumoniae; Dp-3 Type III, MHA, Table 2",0.2 µg/mL
same,MIC,"D. pneumoniae; Dp-4 A9585, MHA, Table 2",0.2 µg/mL
same,MIC,"D. pneumoniae; Dp-5 A15069, MHA, Table 2",0.2 µg/mL
same,MIC,"D. pneumoniae; Dp-6 A20167, MHA, Table 2",0.2 µg/mL
same,MIC,"D. pneumoniae; Dp-7 A20759, MHA, Table 2",0.2 µg/mL
same,MIC,"D. pneumoniae; Dp-8 A20769, MHA, Table 2",0.2 µg/mL
same,MIC,"D. pneumoniae; Dp-9 A20770, MHA, Table 2",0.2 µg/mL
same,MIC,D. pneumoniae; Streptococcus pneumoniae,0.2 µg/mL
same,MIC,"E. coli; A9660, MHA, Table 1, read-out: MIC",0.1 µg/mL
same,MIC,"E. coli; A15147, MHA, Table 1, read-out: MIC",0.4 µg/mL
same,MIC,"E. coli; A15810, MHA, Table 1, read-out: MIC",0.4 µg/mL
same,MIC,"E. coli; ATCC8739, ATCC 8739, MHA, Example 10",3.1 µg/mL
same,MIC,"E. coli; ATCC8739, ATCC 8739, MHA, Table 1, read-out: MIC",0.05 µg/mL
same,MIC,"E. coli; ATCC8739, Ec-15 ATCC 8739, HIA, Table 4, read-out: MIC",0.1 µg/mL
same,MIC,"E. coli; ATCC8739, Ec-15 ATCC 8739, MHA, Table 3, read-out: MIC",0.1 µg/mL
same,MIC,"E. coli; ATCC8739, Ec-15 ATCC 8739, MHA, Table 4, read-out: MIC",0.1 µg/mL
same,MIC,"E. coli; ATCC8739, Ec-15 ATCC 8739, NA, Table 4, read-out: MIC",0.1 µg/mL
same,MIC,"E. coli; BX-1373, MHA, Example 10, read-out: MIC",3.1 µg/mL
same,MIC,"E. coli; BX-1373, MHA, Table 1, read-out: MIC",0.8 µg/mL
same,MIC,"E. coli; Ec-1 NIHJ, HIA, Table 4, read-out: MIC",0.1 µg/mL
same,MIC,"E. coli; Ec-1 NIHJ, MHA, Table 3, read-out: MIC",0.1 µg/mL
same,MIC,"E. coli; Ec-1 NIHJ, MHA, Table 4, read-out: MIC",0.05 µg/mL
same,MIC,"E. coli; Ec-1 NIHJ, NA, Table 4, read-out: MIC",0.1 µg/mL
same,MIC,"E. coli; Ec-3 Juhl A15119, HIA, Table 4, read-out: MIC",0.4 µg/mL
same,MIC,"E. coli; Ec-3 Juhl A15119, MHA, Table 3, read-out: MIC",0.8 µg/mL
same,MIC,"E. coli; Ec-3 Juhl A15119, MHA, Table 4, read-out: MIC",0.4 µg/mL
same,MIC,"E. coli; Ec-3 Juhl A15119, NA, Table 4, read-out: MIC",0.2 µg/mL
same,MIC,"E. coli; Ec-4 A15169, MHA, Table 3, read-out: MIC",6.3 µg/mL
same,MIC,"E. coli; Ec-5 K-12, ML-1630 A20363, MHA, Table 3, read-out: MIC",0.8 µg/mL
same,MIC,"E. coli; Ec-11 A20366 (β-lactamase), HIA, Table 4, read-out: MIC",25 µg/mL
same,MIC,"E. coli; Ec-11 A20366 (β-lactamase), MHA, Table 4, read-out: MIC",50 µg/mL
same,MIC,"E. coli; Ec-11 A20366 (β-lactamase), NA, Table 4, read-out: MIC",50 µg/mL
same,MIC,"E. coli; Ec-11 A20366, MHA, Table 3, read-out: MIC",25 µg/mL
same,MIC,"E. coli; Ec-34 A9660, MHA, Table 3, read-out: MIC",0.1 µg/mL
same,MIC,"E. coli; Ec-35 A9435, MHA, Table 3, read-out: MIC",0.8 µg/mL
same,MIC,"E. coli; Ec-36 A15147 (β-lactamase), HIA, Table 4, read-out: MIC",3.1 µg/mL
same,MIC,"E. coli; Ec-36 A15147 (β-lactamase), MHA, Table 4, read-out: MIC",3.1 µg/mL
same,MIC,"E. coli; Ec-36 A15147 (β-lactamase), NA, Table 4, read-out: MIC",1.6 µg/mL
same,MIC,"E. coli; Ec-36 A15147, MHA, Table 3, read-out: MIC",1.6 µg/mL
same,MIC,"E. coli; Ec-40 A20361, MHA, Table 3, read-out: MIC",0.8 µg/mL
same,MIC,"E. coli; Ec-44 A9535, MHA, Table 3, read-out: MIC",0.1 µg/mL
same,MIC,"E. coli; Ec-45 A15148, MHA, Table 3, read-out: MIC",1.6 µg/mL
same,MIC,"E. coli; Ec-46 A15164 (β-lactamase), HIA, Table 4, read-out: MIC",12.5 µg/mL
same,MIC,"E. coli; Ec-46 A15164 (β-lactamase), MHA, Table 4, read-out: MIC",12.5 µg/mL
same,MIC,"E. coli; Ec-46 A15164 (β-lactamase), NA, Table 4, read-out: MIC",25 µg/mL
same,MIC,"E. coli; Ec-46 A15164, MHA, Table 3, read-out: MIC",12.5 µg/mL
same,MIC,"E. coli; Ec-47 A15170, MHA, Table 3, read-out: MIC",50 µg/mL
same,MIC,"E. coli; Ec-49 A20107, MHA, Table 3, read-out: MIC",0.2 µg/mL
same,MIC,"E. coli; Ec-50 A20109, MHA, Table 3, read-out: MIC",0.8 µg/mL
same,MIC,"E. coli; Ec-51 A20343 (β-lactamase), HIA, Table 4, read-out: MIC",25 µg/mL
